Broadly, the IC50 is the concentration needed to halve the response being measured. A word on the inhibition: it is how much of the control response was suppressed. Lower therefore signals a weak effect.

Molecules are shown by their SMILES. Where two headings read alike, the source gives them in different places.

For 15 molecules, IC50 and inhibition results are on record in article PMC7534383, “Structure-activity relationship of 7-aryl-2-anilino-pyrrolopyrimidines as Mer and Axl tyrosine kinase inhibitors” (Journal of Enzyme Inhibition and Medicinal Chemistry, 2020).

Assay type in all cases: biochemical
For one test, the target named is T1, AXL (Homo sapiens, UniProt P30530).
T1 sequence (P30530 26-894): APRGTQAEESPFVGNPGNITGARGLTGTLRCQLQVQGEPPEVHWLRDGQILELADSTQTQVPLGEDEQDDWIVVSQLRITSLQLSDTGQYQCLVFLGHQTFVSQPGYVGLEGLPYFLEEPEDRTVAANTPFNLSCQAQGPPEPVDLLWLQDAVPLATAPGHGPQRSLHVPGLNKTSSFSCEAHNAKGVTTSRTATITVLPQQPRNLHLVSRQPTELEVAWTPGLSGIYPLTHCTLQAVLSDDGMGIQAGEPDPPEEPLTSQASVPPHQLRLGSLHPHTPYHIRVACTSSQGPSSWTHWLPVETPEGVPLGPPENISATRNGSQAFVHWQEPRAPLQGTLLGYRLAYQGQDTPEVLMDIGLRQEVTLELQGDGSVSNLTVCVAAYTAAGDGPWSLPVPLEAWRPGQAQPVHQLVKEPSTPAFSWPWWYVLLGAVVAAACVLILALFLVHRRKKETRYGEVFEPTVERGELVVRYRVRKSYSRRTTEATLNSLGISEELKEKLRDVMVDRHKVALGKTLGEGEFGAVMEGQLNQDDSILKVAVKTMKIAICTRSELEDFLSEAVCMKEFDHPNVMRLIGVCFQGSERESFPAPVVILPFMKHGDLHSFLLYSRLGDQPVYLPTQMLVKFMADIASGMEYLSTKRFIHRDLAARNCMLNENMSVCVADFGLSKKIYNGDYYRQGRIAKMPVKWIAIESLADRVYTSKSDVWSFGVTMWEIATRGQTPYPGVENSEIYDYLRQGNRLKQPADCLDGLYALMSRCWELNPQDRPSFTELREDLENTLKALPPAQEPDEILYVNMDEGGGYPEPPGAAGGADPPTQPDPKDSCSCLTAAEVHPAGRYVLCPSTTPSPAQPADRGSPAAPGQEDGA
Nature of the test: Kinase assay at Km ATP (Eurofins Discovery), Axl. Conditions: Km ATP. How it is done:
(§1) All kinase assays were carried out at Km ATP by Eurofins Discovery's Kinase Screening and Profiling services (France).

A further test has as its target T2, TYRO3 (Homo sapiens, UniProt Q06418).
T2 sequence (Q06418 41-890): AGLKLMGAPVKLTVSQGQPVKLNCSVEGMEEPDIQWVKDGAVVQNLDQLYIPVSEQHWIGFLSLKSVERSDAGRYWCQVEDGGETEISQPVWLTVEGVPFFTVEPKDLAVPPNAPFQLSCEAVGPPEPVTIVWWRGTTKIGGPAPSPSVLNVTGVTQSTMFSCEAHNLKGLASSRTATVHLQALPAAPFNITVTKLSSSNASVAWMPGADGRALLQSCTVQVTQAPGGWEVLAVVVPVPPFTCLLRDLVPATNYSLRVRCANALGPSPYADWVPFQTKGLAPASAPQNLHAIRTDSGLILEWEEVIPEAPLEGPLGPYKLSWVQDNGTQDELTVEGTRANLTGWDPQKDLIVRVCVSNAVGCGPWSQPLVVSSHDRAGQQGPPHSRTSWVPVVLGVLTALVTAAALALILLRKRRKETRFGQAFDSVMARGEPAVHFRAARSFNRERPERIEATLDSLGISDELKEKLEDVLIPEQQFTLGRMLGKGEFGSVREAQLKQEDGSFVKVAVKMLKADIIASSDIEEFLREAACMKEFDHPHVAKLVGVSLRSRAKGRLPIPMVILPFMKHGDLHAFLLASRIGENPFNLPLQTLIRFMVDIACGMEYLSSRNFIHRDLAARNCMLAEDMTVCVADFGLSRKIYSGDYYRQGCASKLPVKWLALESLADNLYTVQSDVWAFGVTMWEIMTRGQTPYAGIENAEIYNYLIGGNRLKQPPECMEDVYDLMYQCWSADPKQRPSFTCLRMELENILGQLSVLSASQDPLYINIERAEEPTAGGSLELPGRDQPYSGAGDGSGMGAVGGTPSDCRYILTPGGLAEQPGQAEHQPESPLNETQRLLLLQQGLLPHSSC
Nature of the test: Kinase assay at Km ATP (Eurofins Discovery), Tyro3. Here is the method: as §1

The target of another test is T3, MERTK (Homo sapiens, UniProt Q12866).
T3 sequence (Q12866 21-999): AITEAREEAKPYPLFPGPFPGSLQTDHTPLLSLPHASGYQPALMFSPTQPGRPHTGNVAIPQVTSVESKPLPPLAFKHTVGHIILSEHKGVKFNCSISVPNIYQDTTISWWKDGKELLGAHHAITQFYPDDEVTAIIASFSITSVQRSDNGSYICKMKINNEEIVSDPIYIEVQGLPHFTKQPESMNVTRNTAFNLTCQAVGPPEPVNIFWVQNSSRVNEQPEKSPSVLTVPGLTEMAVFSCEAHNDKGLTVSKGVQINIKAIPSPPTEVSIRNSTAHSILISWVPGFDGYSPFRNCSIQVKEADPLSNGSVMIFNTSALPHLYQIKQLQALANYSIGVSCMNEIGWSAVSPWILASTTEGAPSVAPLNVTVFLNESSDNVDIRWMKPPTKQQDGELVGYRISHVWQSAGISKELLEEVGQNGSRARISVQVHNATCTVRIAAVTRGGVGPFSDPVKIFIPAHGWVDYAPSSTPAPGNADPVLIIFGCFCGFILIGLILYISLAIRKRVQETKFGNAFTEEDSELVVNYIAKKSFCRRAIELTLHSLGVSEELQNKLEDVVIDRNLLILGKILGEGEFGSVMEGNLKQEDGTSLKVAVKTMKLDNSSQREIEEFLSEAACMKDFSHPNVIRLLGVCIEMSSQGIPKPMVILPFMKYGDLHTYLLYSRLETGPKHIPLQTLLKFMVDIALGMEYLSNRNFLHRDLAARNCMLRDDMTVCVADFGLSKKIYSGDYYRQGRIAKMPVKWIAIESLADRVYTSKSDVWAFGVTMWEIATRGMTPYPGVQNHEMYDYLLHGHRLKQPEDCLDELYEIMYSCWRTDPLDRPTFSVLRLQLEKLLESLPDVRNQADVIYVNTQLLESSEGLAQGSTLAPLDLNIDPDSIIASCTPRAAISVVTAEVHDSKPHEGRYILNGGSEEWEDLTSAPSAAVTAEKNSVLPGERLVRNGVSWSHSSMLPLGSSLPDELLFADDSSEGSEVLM
Nature of the test: Kinase assay at Km ATP (Eurofins Discovery), Mer. Conditions: Km ATP. How it is done:
as §1

Setting [1] is: Table 1, mean values, read-out: IC50 (nM) MERTK.
Where [2] appears, read: Table 3, read-out: IC50 (nM) MER.
The mark [3] stands for this setting: Table 2, read-out: IC50 (nM) MER.

As for `COc1ccc(-n2ccc3cnc(N4CCN(C)CC4)nc32)cc1` [Compound 5, 7–(4-Methoxyphenyl)-2–(4-methylpiperazin-1-yl)-7H-pyrrolo[2,3-d]pyrimidine], the IC50 is more than 1000 nM at AXL (Table 1, mean values) and more than 1000 nM on MERTK (setting [1]). Further, at TYRO3, the inhibition at 1 µM was determined as 0%.

Take `COc1ccc(-n2ccc3cnc(Nc4cccc(-c5ccccc5)c4)nc32)cc1` [Compound 4, N-([1,1′-Biphenyl]-3-yl)-7–(4-methoxyphenyl)-7H-pyrrolo[2,3-d]pyrimidin-2-amine]: the IC50 on AXL (Table 1, mean values) was more than 3000 nM; on MERTK (setting [1]) it was more than 3000 nM. At TYRO3, the inhibition at 1 µM is 12%.

For the molecule `COc1ccc(-n2ccc3cnc(Nc4ccccc4)nc32)cc1` [Compound 3, 7–(4-Methoxyphenyl)-N-phenyl-7H-pyrrolo[2,3-d]pyrimidin-2-amine], the IC50 on AXL (Table 1, mean values) is 751 nM; on MERTK (setting [1]), 95 nM. This molecule showed an inhibition at 1 µM on TYRO3 of 44%.

Take `COc1cc(Nc2ncc3ccn(-c4ccc(OC(F)(F)F)cc4)c3n2)cc(N2CCC(N3CCCC3)CC2)c1` [Compound 33, N-(3-Methoxy-5–(4-(pyrrolidin-1-yl)piperidin-1-yl)phenyl)-7–(4-(trifluoromethoxy)phenyl)-7H-pyrrolo[2,3-d]pyrimidin-2-amine]: the IC50 at AXL (Table 3) amounted to 57 nM; on MERTK (setting [2]) it was 9 nM. At 1 µM the inhibition at TYRO3 was 23%.

On to `COc1ccc(-n2ccc3cnc(Nc4cc(OC)cc(N5CCN(C)CC5)c4)nc32)cc1` [Compound 25, N-(3-Methoxy-5–(4-methylpiperazin-1-yl)phenyl)-7–(4-methoxyphenyl)-7H-pyrrolo[2,3-d]pyrimidin-2-amine], for which the values for the IC50 against AXL (Table 2) and at MERTK (setting [3]) were 17 nM and 2 nM, respectively. The molecule further registered an inhibition at 1 µM against TYRO3 of 86%.

Turning to `COc1cc(Nc2ncc3ccn(-c4ccccc4)c3n2)cc(N2CCC(N3CCCC3)CC2)c1` [Compound 34, N-(3-Methoxy-5–(4-(pyrrolidin-1-yl)piperidin-1-yl)phenyl)-7-phenyl-7H-pyrrolo[2,3-d]pyrimidin-2-amine], the IC50 is 48 nM against AXL (Table 3) and 17 nM at MERTK (setting [2]). On TYRO3, testing at 1 µM gave an inhibition of 35%.

Regarding `COc1ccc(-n2ccc3cnc(Nc4cc(OC)cc(N5CCCC(N6CCCC6)C5)c4)nc32)cc1` (centres unmarked) [Compound 29, N-(3-Methoxy-5–(3-(pyrrolidin-1-yl)piperidin-1-yl)phenyl)-7–(4-methoxyphenyl)-7H-pyrrolo[2,3-d]pyrimidin-2-amine], the IC50 against AXL (Table 2) and on MERTK (setting [3]) was 31 nM throughout. The same molecule had an inhibition at 1 µM against TYRO3 of 49%.

On to `COc1ccc(-n2ccc3cnc(Nc4cc(OC)cc(N5CCC6(CCCO6)CC5)c4)nc32)cc1` [Compound 32, N-(3-Methoxy-5–(1-oxa-8-azaspiro[4.5]decan-8-yl)phenyl)-7–(4-methoxyphenyl)-7H-pyrrolo[2,3-d]pyrimidin-2-amine], for which inhibition against AXL (Table 2) was half-maximal at 288 nM (IC50). Moreover, the inhibition at 1 µM at TYRO3 was 0%.

Turning to `COc1ccc(-n2ccc3cnc(Nc4cc(OC)cc(N5CCC(C)(N6CCCC6)CC5)c4)nc32)cc1` [Compound 28, N-(3-Methoxy-5–(4-methyl-4-(pyrrolidin-1-yl)piperidin-1-yl)phenyl)-7–(4-methoxyphenyl)-7H-pyrrolo[2,3-d]pyrimidin-2-amine], the IC50 against AXL (Table 2) was determined as 32 nM; at MERTK (setting [3]), 7 nM. This molecule also yielded an inhibition at 1 µM against TYRO3 of 72%.

For `COc1ccc(-n2ccc3cnc(Nc4cc(OC)cc(N5CCN(C6COC6)CC5)c4)nc32)cc1` [Compound 30, N-(3-Methoxy-5–(4-(oxetan-3-yl)piperazin-1-yl)phenyl)-7–(4-methoxyphenyl)-7H-pyrrolo[2,3-d]pyrimidin-2-amine], the IC50 on AXL (Table 2) came out at 212 nM; at MERTK (setting [3]), 36 nM. This molecule came in with an inhibition at 1 µM against TYRO3 of 39%.

Take `COc1ccc(-n2ccc3cnc(Nc4ccc(N5CCC(N(C)C)C5)c(OC)c4)nc32)cc1` (centres unmarked) [Compound 18, N-(4–(3-(Dimethylamino)pyrrolidin-1-yl)-3-methoxyphenyl)-7–(4-methoxyphenyl)-7H-pyrrolo[2,3-d]pyrimidin-2-amine]: the IC50 was 175 nM against AXL (Table 2) and 46 nM on MERTK (setting [3]). At TYRO3, this molecule yielded an inhibition at 1 µM of 30%.

Regarding `COc1ccc(-n2ccc3cnc(Nc4cc(CN5CCN(C)CC5)cc(OC)c4)nc32)cc1` [Compound 26, N-(3-Methoxy-5-((4-methylpiperazin-1-yl)methyl)phenyl)-7–(4-methoxyphenyl)-7H-pyrrolo[2,3-d]pyrimidin-2-amine], the IC50 worked out at 18 nM against AXL (Table 2) and 4 nM on MERTK (setting [3]). Further, at TYRO3, the inhibition at 1 µM was 92%.

With `COc1ccc(-n2ccc3cnc(Nc4cc(OC)cc(N5CCC6(CCCC6)CC5)c4)nc32)cc1` [Compound 31, N-(3-Methoxy-5–(8-azaspiro[4.5]decan-8-yl)phenyl)-7–(4-methoxyphenyl)-7H-pyrrolo[2,3-d]pyrimidin-2-amine], the IC50 against AXL (Table 2) and at MERTK (setting [3]) was more than 3000 nM each time. The molecule further came in with an inhibition at 1 µM against TYRO3 of 4%.

In the case of `COc1cc(Nc2ncc3ccn(-c4nccs4)c3n2)cc(N2CCC(N3CCCC3)CC2)c1` [Compound 35, N-(3-Methoxy-5–(4-(pyrrolidin-1-yl)piperidin-1-yl)phenyl)-7-(thiazol-2-yl)-7H-pyrrolo[2,3-d]pyrimidin-2-amine], the figures for the IC50 at AXL (Table 3) and at MERTK (setting [2]) were 247 nM and 64 nM, respectively. Besides, at 1 µM the inhibition on TYRO3 was 16%.

Regarding `COc1ccc(-n2ccc3cnc(Nc4cccc(OC)c4)nc32)cc1` [Compound 2, N-(3-Methoxyphenyl)-7–(4-methoxyphenyl)-7H-pyrrolo[2,3-d]pyrimidin-2-amine], the IC50 against AXL (Table 1, mean values) was determined as 1240 nM; on MERTK (setting [1]), 39 nM. At TYRO3, this molecule gave an inhibition at 1 µM of 38%.
